Literature values, collected in patent EP4108230A1, “NEW DRY POWDER COMPOSITION OF TIOTROPIUM FOR INHALATION” (Laboratoires SMB, priority 2021, dated 2022).

solubility in methanol (methanol): soluble
solubility in water (water): sparingly soluble
Structure (SMILES): C[N+]1(C)[C@@H]2C[C@@H](OC(=O)C(O)(c3cccs3)c3cccs3)C[C@H]1[C@@H]1O[C@@H]12 [Tiotropium bromide, (1α, 2β, 4 β, 5α, 7β)-7-[(Hydroxydi-2-thienylacetyl)oxy]-9,9-dimethyl-3-oxa-9-azoniatricyclo[3.3.1.02,4] nonane bromide monohydrate]
